Experimental data from patent US8183048B2, “Assay for screening/ranking antioxidants based on their effects on membrane sterol lateral organization” (Temple University- Of the Commonwealth System of Higher …, priority 2007, dated 2012).
Values joined by “and” are separate entries in the source; they are usually repeats but may differ in a detail not shown here. Equal values may be shown once. “Also recorded” adds a separate entry of the source.

Columns and labels:
[1] = AAPH-induced sterol oxidation, initial rate (Ri) vs sterol mol %; format: biochemical
Description: The main purpose of this assay is to determine the Cth value for the antioxidant ALA, which is both water and lipid soluble. […] Ri came from monitoring DHE fluorescence intensity after addition of AAPH. […] In this case (the right panel in the flow chart—FIG. 9), the initial rate of sterol oxidation (Ri), instead of the lag phase, is used as the parameter to reflect the potency of an antioxidant activity. […] The membrane system is: 1-palmitoyl-2-oleoyl-L-α-phosphatidylcholine (POPC)/porcine brain sphingomyelins (pSPMs)/DHE LUVs. This biphasic change is expected from the sterol superlattice theory and is consistent with our previous finding (43). […] In this case, the Cth value is determined to be >>5 mM, if there is any. Vertical bars are the standard deviations from three independently prepared samples. The experiment was carried out at 37-42° C.
The term “Ri” as used herein means the initial rate of sterol oxidation in sec^−1. Ri can be calculated as follows: Ri equals [(Normalized fluorescence intensity of DHE at time t) minus (normalized fluorescence intensity of DHE at time 0)] divided by (t−0). Initial rate of sterol oxidation is calculated from the slope of DHE fluorescence intensity decrease vs time. […] Each sample set spanning a critical mole fraction must be analyzed separately in order to get an accurate picture for that particular set of vesicles. […] One reason for these slight variations is due to the high sensitivity of fluorescence signals. Fluorescence intensity is a relative value, depending on the amount of fluorophore in the cuvette, sample mixing, temperature fluctuations, and quenching due to impurities in the sample. For this reason, each complete set is analyzed separately, but all sets are normalized so that they can be compared to each other. Each sample set is analyzed by examining the first five to ten minutes of fluorescence decay in a sequential manner. […] Within a sample set, the deviation from linearity can be determined, and the number of minutes that will be used to calculate the initial rate can be defined. […]

[2] = AAPH-induced DHE oxidation, antioxidant-induced lag phase vs sterol mol % (sterol superlattice assay); format: biochemical
Experimental: Two-component or multi-component models of large unilamellar vesicles (LUVs) containing DHE (dehydroergosterol) are prepared as described above. The sizes of LUVs are in the range of 100-800 nm in diameter. [Please quantify the term “large”]. A prooxidant or a free radical generator is added to a fluorescence cuvette containing LUVs that have been incubated with an antioxidant. In certain embodiments, sterol oxidation was induced by a water-soluble free radical generator, AAPH (2,2′-azobis(2-amidinopropane) dihydrochloride). […] Plotting the lag phase length (τ) (or the initial rate Ri, in the case of lacking lag phase) vs sterol mole fraction in the presence of low dose antioxidant, a biphasic change in (or Ri) at a given Cr (e.g., 20.0, 22.2, 25.0, 33.3, 40.0 and 50.0 mol % sterol) is observed (see FIGS. 4, 8, and 9). This experiment will be repeated at different antioxidant doses. A threshold antioxidant concentration (Cth) is the highest antioxidant concentration at which the biphasic change in τ with sterol mol % may still be detected. The τ, Ri, and Cth values will give information about the antioxidant activity or potency and side effects. The τ and Ri values will give information about the antioxidant activity or potency. […] The ratio of the Ri value in the presence of antioxidants to that in the absence of antioxidants (Ri/Rio) also reflects the potency of the antioxidant. […] The Cth value indicates the potential toxicity of the antioxidant. The lower the Cth value is, the higher the potential damage to cell membranes becomes. The Cth values will be determined based on the capability of the antioxidant to abolish the biphasic change of either τ or Ri with membrane sterol mole fraction. All of the antioxidants, either producing τ or Ri, can be compared and ranked based on the Cth values.
Dehydroergosterol (DHE; Sigma, St. Louis, Mo.) was first purified by HPLC, and then dissolved in CHCl3 to make a stock solution. The concentration of DHE stock solution was calculated by absorbance in dioxane at 326 nm, using an extinction coefficient equal to 10,600 M^−1 cm^−1. DMPC was purchased from Avanti Polar Lipids (Alabaster, Ala.). The concentration of DMPC in stock solution and in LUVs was determined by the method of Bartlett (61). The prooxidant AAPH ((2,2′-azobis(2-amidinopropane) dihydrochloride) was obtained from Aldrich (Milwaukee, Wis.). Ascorbic acid and ascorbyl palmitate were purchased from Sigma.
Calculated amounts of DMPC and DHE were pipetted into tubes and dried under N2 until there was no visible solvent; lipids were then dried overnight under vacuum. Next, lipids were reconstituted at 37° C. with 5.0 mL of 50 mM Tris-HCl buffer at pH 7.0 (containing 0.02% NaN3 and 0.1 mM EDTA), then flushed with N2, and vortexed for 2 min at 37° C. to form multilamellar vesicles (MLVs). The MLVs were cooled to 4° C. for 30 min and then incubated at 37° C. for 30 min. This cooling/heating cycle was repeated three times to ensure an even distribution of lipids within each monolayer of the vesicles. After being exposed to three cycles of heat/cold to allow for thorough mixing, vesicles were left for 4 days at room temperature to come to thermal equilibrium. LUVs were then prepared from MLVs by extrusion (Lipex Biomembranes Inc., Vancouver, BC, Canada). The MLVs were extruded at 37° C. 10 times through two stacked 200 nm Nucleopore polycarbonate filters (Costar) under nitrogen gas pressure to form homogeneous LUVs. To avoid auto-oxidation of sterol, the LUV samples were flushed with argon, sealed, and stored in a dessicator chamber under vacuum at room temperature for seven days prior to sterol oxidation measurements (50). During this time, phosphorus concentration was measured again to determine new phospholipid concentration after loss by extrusion (53).
A typical LUV sample set spanned a predicted critical sterol mole fraction (Cr) for maximal superlattice formation. […]

[3] = sample set 23.8-26.2 mol %, Cr 25.0 mol %, FIG. 5
[4] = sample set 38.8-41.2 mol %, Cr 40.0 mol %, FIG. 6

Compound | lag phase in AAPH-induced sterol oxidation ([1]; AAPH-induced DHE fluorescence decay) | effect on initial rate of sterol oxidation (Ri) ([1]; AAPH-induced DHE oxidation, increasing ALA doses) | Cth (from biphasic change of Ri with sterol content) ([1]; POPC/pSPMs/DHE LUVs, Cr 20.0 mol %, 37-42° C., FIG. 8) | Cth (threshold antioxidant concentration above which biphasic profile of lag phase at Cr is no longer observable) ([2]; sample set 18.8-21.2 mol % DHE in DMPC, Cr 20.0 mol %, FIG. 4) | Cth (biphasic change in lag phase with sterol content abolished) [2, 3] | Cth (biphasic change in lag phase with sterol content abolished) [2, 4] | Cth (threshold antioxidant concentration for sterol superlattice disruption) ([2]; DMPC/DHE LUVs, 37° C., all three sample sets (Cr 20.0, 25.0, 40.0 mol %)) | lag phase length relative to ascorbic acid ([2]; same apparent dose, FIGS. 2 and 3) | concentration at which the biphasic profile of lag phase is obliterated ([2]; sample set spanning Cr 20.0 mol % DHE, FIG. 4) | concentration at which the biphasic profile of lag phase is obliterated ([2]; sample set spanning Cr 25.0 mol % DHE, FIG. 5) | concentration at which the biphasic profile of lag phase is obliterated ([2]; sample set spanning Cr 40.0 mol % DHE, FIG. 6)
O=C(O)CCCCC1CCSS1 (stereo not drawn) [ALA, alpha lipoic acid] | does not generate a lag phase | Ri decreases with increasing ALA doses; also recorded: dose-dependent decrease | > 5 mM | – | – | – | – | – | – | – | –
O=C1O[C@H]([C@@H](O)CO)C(O)=C1O [ascorbic acid] | – | – | – | ≥ 30 µM | ≥ 30 µM | ≥ 120 µM | – | – | – | – | –
CCCCCCCCCCCCCCCC(=O)OC[C@H](O)[C@H]1OC(=O)C(O)=C1O [ascorbyl palmitate] | – | – | – | – | 11.3 to 15.0 µM | 13.1 to 15.0 µM | 13 to 15 µM and 13.1 to 15.0 µM | much more potent; also recorded: about three | ≥ 15.0 µM | ≥ 15.0 µM | ≥ 15.0 µM
